Among the data in PMC3064516 (Nature structural & molecular biology, 2011) are Km values, retold here.

In the assay the target is Autotaxin (ATX, ENPP2) (Homo sapiens, UniProt Q13822). Put plainly: nucleotide phosphodiesterase assay, Km. It is filed as biochemical.

Take `Cc1cn([C@H]2C[C@H](O)[C@@H](COP(=O)(O)Oc3ccc([N+](=O)[O-])cc3)O2)c(=O)[nH]c1=O` [pNP-TMP, p-nitrophenyl thymidine 5′-monophosphate]: the Km was determined as 1930 ± 200 µM.

What is called Km is the concentration of substrate that gives half-maximal velocity.
